Here are results for 11 compounds from ChEMBL document CHEMBL1151051, “Structure-based design of novel calcineurin (PP2B) inhibitors” (Bioorg Med Chem Lett, 1997).

A short description of one assay: Inhibition of Protein phosphatase 2B. To be noted: read-out: Ki app. The arrangement: species or system Homo sapiens.
With `O=C(CCCC1CCCCC1)OC[C@H]1C[C@@H]2O[C@H]1[C@H]1C(=O)OC(=O)[C@H]12`, the Ki amounted to 1000 nM. Same read-out and setting: the value for `O=C(CCCc1ccccc1)OC[C@H]1C[C@@H]2O[C@H]1[C@H]1C(=O)OC(=O)[C@H]12` was 1200 nM; that for `O=C(Cc1ccccc1)OC[C@H]1C[C@@H]2O[C@H]1[C@H]1C(=O)OC(=O)[C@H]12` was 7400 nM.

For the compound `O=C(CCCCc1ccccc1)OC[C@H]1C[C@@H]2O[C@H]1[C@H]1C(=O)OC(=O)[C@H]12`, the Ki is 2300 nM. Same read-out and setting: the value for `O=C(OC[C@H]1C[C@@H]2O[C@H]1[C@H]1C(=O)OC(=O)[C@H]12)c1ccccc1` was 11000 nM. On the same count and under the same terms, to `O=C1OC(=O)[C@@H]2[C@H]1[C@@H]1O[C@H]2C[C@@H]1COC(=O)[C@@H]1C[C@H]1c1ccccc1` belongs 500 nM. On the same count and under the same terms, the value for `O=C(OC[C@H]1C[C@@H]2O[C@H]1[C@H]1C(=O)OC(=O)[C@H]12)c1cccc(Oc2ccccc2)c1` was 1800 nM; that for `O=C(Cc1c[nH]c2ccccc12)OC[C@H]1C[C@@H]2O[C@H]1[C@H]1C(=O)OC(=O)[C@H]12` was 2000 nM; that for `O=C(CCc1ccccc1)OC[C@H]1C[C@@H]2O[C@H]1[C@H]1C(=O)OC(=O)[C@H]12` was 3700 nM. On to `O=C(OC[C@H]1C[C@@H]2O[C@H]1[C@H]1C(=O)OC(=O)[C@H]12)c1ccc(Oc2ccccc2)cc1`, for which the Ki came to 1400 nM. Consider `O=C(O)[C@@H]1[C@H](C(=O)O)[C@H]2CC[C@@H]1O2` [ENDOTHALL], for which the Ki came to 11500 nM.

The nature of the next assay: The compound was tested for the inhibition of Protein phosphatase-1 (PP1). The settings on record: read-out: Ki app.
For the compound `O=C1OC(=O)[C@@H]2[C@H]1[C@@H]1O[C@H]2C[C@@H]1COC(=O)[C@@H]1C[C@H]1c1ccccc1`, the Ki is 4000 nM. The same measure, in the same setting: the value for `O=C(O)[C@@H]1[C@H](C(=O)O)[C@H]2CC[C@@H]1O2` [ENDOTHALL] was 4000 nM.
